Key:
Format in all cases: functional, cell-based
[1] = Cytotoxicity against human HT1080 cells assessed as growth inhibition after 48 hrs by MTT assay; conditions: HT-1080, 48 h
[2] = Cytotoxicity against human SGC7901 cells assessed as growth inhibition after 48 hrs by MTT assay; conditions: SGC-7901, 48 h
KB = assay: Cytotoxicity against human KB cells assessed as growth inhibition after 48 hrs by MTT assay

Structure (SMILES) | IC50 [1] [µM] | IC50 [2] [µM] | IC50 (KB) [µM]
CC[C@H]1OC(=O)[C@H](C)[C@@H](O)[C@H](C)[C@@H](O[C@@H]2O[C@H](C)C[C@H](N(C)CCN(C)[C@H]3C[C@@H](C)O[C@@H](O[C@@H]4[C@@H](C)[C@H](O[C@H]5C[C@@](C)(OC)[C@@H](O)[C@H](C)O5)[C@@H](C)C(=O)O[C@H](CC)[C@@](C)(O)[C@H](O)[C@@H](C)C(=O)[C@H](C)C[C@@]4(C)OC)[C@@H]3O)[C@H]2O)[C@](C)(OC)C[C@@H](C)C(=O)[C@H](C)[C@@H](O)[C@]1(C)O | > 100 | > 100 | 97
CC[C@H]1OC(=O)[C@H](C)[C@@H](O[C@H]2C[C@@](C)(OC)[C@@H](O)[C@H](C)O2)[C@H](C)[C@@H](O[C@@H]2O[C@H](C)C[C@H](N(C)CCN(C)[C@H]3C[C@@H](C)O[C@@H](O[C@@H]4[C@@H](C)[C@H](O[C@H]5C[C@@](C)(OC)[C@@H](O)[C@H](C)O5)[C@@H](C)C(=O)O[C@H](CC)[C@@](C)(O)[C@H](O)[C@@H](C)/C(=N\OCOCCOC)[C@H](C)C[C@@]4(C)O)[C@@H]3O)[C@H]2O)[C@](C)(O)C[C@@H](C)/C(=N/O)[C@H](C)[C@@H](O)[C@]1(C)O | 16.2 | 7.2 | 18.6
CC[C@H]1OC(=O)[C@H](C)[C@@H](O[C@H]2C[C@@](C)(OC)[C@@H](O)[C@H](C)O2)[C@H](C)[C@@H](O[C@@H]2O[C@H](C)C[C@H](N(C)CCN(C)[C@H]3C[C@@H](C)O[C@@H](O[C@@H]4[C@@H](C)[C@H](O[C@H]5C[C@@](C)(OC)[C@@H](O)[C@H](C)O5)[C@@H](C)C(=O)O[C@H](CC)[C@@](C)(O)[C@H](O)[C@@H](C)/C(=N\OCc5ccccc5)[C@H](C)C[C@@]4(C)O)[C@@H]3O)[C@H]2O)[C@](C)(O)C[C@@H](C)/C(=N/OCOCCOC)[C@H](C)[C@@H](O)[C@]1(C)O | > 100 | > 100 | > 100
CCCCCCCCO/N=C1/[C@H](C)C[C@@](C)(O)[C@H](O[C@@H]2O[C@H](C)C[C@H](N(C)CCN(C)[C@H]3C[C@@H](C)O[C@@H](O[C@@H]4[C@@H](C)[C@H](O[C@H]5C[C@@](C)(OC)[C@@H](O)[C@H](C)O5)[C@@H](C)C(=O)O[C@H](CC)[C@@](C)(O)[C@H](O)[C@@H](C)/C(=N\OCCCCCCCC)[C@H](C)C[C@@]4(C)O)[C@@H]3O)[C@H]2O)[C@@H](C)[C@H](O[C@H]2C[C@@](C)(OC)[C@@H](O)[C@H](C)O2)[C@@H](C)C(=O)O[C@H](CC)[C@@](C)(O)[C@H](O)[C@H]1C | > 100 | > 100 | > 100
CC[C@H]1OC(=O)[C@H](C)[C@@H](O[C@H]2C[C@@](C)(OC)[C@@H](O)[C@H](C)O2)[C@H](C)[C@@H](O[C@@H]2O[C@H](C)C[C@H](N(C)CCN(C)[C@H]3C[C@@H](C)O[C@@H](O[C@@H]4[C@@H](C)[C@H](O[C@H]5C[C@@](C)(OC)[C@@H](O)[C@H](C)O5)[C@@H](C)C(=O)O[C@H](CC)[C@@](C)(O)[C@H](O)[C@@H](C)[C@@H](O)[C@H](C)C[C@@]4(C)O)[C@@H]3O)[C@H]2O)[C@](C)(O)C[C@@H](C)[C@H](O)[C@H](C)[C@@H](O)[C@]1(C)O | > 100 | 61.6 | 44.9
CC[C@H]1OC(=O)[C@H](C)[C@@H](O)[C@H](C)[C@@H](O[C@@H]2O[C@H](C)C[C@H](N(C)CCN(C)[C@H]3C[C@@H](C)O[C@@H](O[C@@H]4[C@@H](C)[C@H](O[C@H]5C[C@@](C)(OC)[C@@H](O)[C@H](C)O5)[C@@H](C)C(=O)O[C@H](CC)[C@@](C)(O)[C@H](O)[C@@H](C)/C(=N\O)[C@H](C)C[C@@]4(C)OC)[C@@H]3O)[C@H]2O)[C@](C)(OC)C[C@@H](C)/C(=N/O)[C@H](C)[C@@H](O)[C@]1(C)O | 42.8 | 12.7 | 38.2
CC[C@H]1OC(=O)[C@H](C)[C@@H](O[C@H]2C[C@@](C)(OC)[C@@H](O)[C@H](C)O2)[C@H](C)[C@@H](O[C@@H]2O[C@H](C)C[C@H](N(C)CC(=O)N(C)[C@H]3C[C@@H](C)O[C@@H](O[C@@H]4[C@@H](C)[C@H](O[C@H]5C[C@@](C)(OC)[C@@H](O)[C@H](C)O5)[C@@H](C)C(=O)O[C@H](CC)[C@@](C)(O)[C@H](O)[C@@H](C)C(=O)[C@H](C)C[C@@]4(C)O)[C@@H]3O)[C@H]2O)[C@](C)(OC)C[C@@H](C)C(=O)[C@H](C)[C@@H](O)[C@]1(C)O | > 100 | > 100 | > 100
CCCCCO/N=C1/[C@H](C)C[C@@](C)(OC)[C@H](O[C@@H]2O[C@H](C)C[C@H](N(C)CCN(C)[C@H]3C[C@@H](C)O[C@@H](O[C@@H]4[C@@H](C)[C@H](O[C@H]5C[C@@](C)(OC)[C@@H](O)[C@H](C)O5)[C@@H](C)C(=O)O[C@H](CC)[C@@](C)(O)[C@H](O)[C@@H](C)/C(=N\OCCCCC)[C@H](C)C[C@@]4(C)OC)[C@@H]3O)[C@H]2O)[C@@H](C)[C@H](O[C@H]2C[C@@](C)(OC)[C@@H](O)[C@H](C)O2)[C@@H](C)C(=O)O[C@H](CC)[C@@](C)(O)[C@H](O)[C@H]1C | 54.1 | 30.8 | > 100
CC[C@H]1OC(=O)[C@H](C)[C@@H](O)[C@H](C)[C@@H](O[C@@H]2O[C@H](C)C[C@H](N(C)C(=O)CN(C)[C@H]3C[C@@H](C)O[C@@H](O[C@@H]4[C@@H](C)[C@H](O[C@H]5C[C@@](C)(OC)[C@@H](O)[C@H](C)O5)[C@@H](C)C(=O)O[C@H](CC)[C@@](C)(O)[C@H](O)[C@@H](C)/C(=N\OCOCCOC)[C@H](C)C[C@@]4(C)O)[C@@H]3O)[C@H]2O)[C@](C)(OC)C[C@@H](C)C(=O)[C@H](C)[C@@H](O)[C@]1(C)O | > 100 | > 100 | > 100
CC[C@H]1OC(=O)[C@H](C)[C@@H](O[C@H]2C[C@@](C)(OC)[C@@H](O)[C@H](C)O2)[C@H](C)[C@@H](O[C@@H]2O[C@H](C)C[C@H](N(C)CCN(C)[C@H]3C[C@@H](C)O[C@@H](O[C@@H]4[C@@H](C)[C@H](O[C@H]5C[C@@](C)(OC)[C@@H](O)[C@H](C)O5)[C@@H](C)C(=O)O[C@H](CC)[C@@](C)(O)[C@H](O)[C@@H](C)/C(=N\OCc5ccccc5)[C@H](C)C[C@@]4(C)OC)[C@@H]3O)[C@H]2O)[C@](C)(OC)C[C@@H](C)/C(=N/OCc2ccccc2)[C@H](C)[C@@H](O)[C@]1(C)O | 9.5 | 26.5 | 7.6
CC[C@H]1OC(=O)[C@H](C)[C@@H](O[C@H]2C[C@@](C)(OC)[C@@H](O)[C@H](C)O2)[C@H](C)[C@@H](O[C@@H]2O[C@H](C)C[C@H](N(C)C(=O)CN(C)[C@H]3C[C@@H](C)O[C@@H](O[C@@H]4[C@@H](C)[C@H](O[C@H]5C[C@@](C)(OC)[C@@H](O)[C@H](C)O5)[C@@H](C)C(=O)O[C@H](CC)[C@@](C)(O)[C@H](O)[C@@H](C)/C(=N\OCOCCOC)[C@H](C)C[C@@]4(C)O)[C@@H]3O)[C@H]2O)[C@](C)(OC)C[C@@H](C)C(=O)[C@H](C)[C@@H](O)[C@]1(C)O | > 100 | > 100 | > 100
CC[C@H]1OC(=O)[C@H](C)[C@@H](O[C@H]2C[C@@](C)(OC)[C@@H](O)[C@H](C)O2)[C@H](C)[C@@H](O[C@@H]2O[C@H](C)C[C@H](N(C)CCN(C)[C@H]3C[C@@H](C)O[C@@H](O[C@@H]4[C@@H](C)[C@H](O[C@H]5C[C@@](C)(OC)[C@@H](O)[C@H](C)O5)[C@@H](C)C(=O)O[C@H](CC)[C@@](C)(O)[C@H](O)[C@@H](C)/C(=N\OCc5cc(OC)c(OC)c(OC)c5)[C@H](C)C[C@@]4(C)OC)[C@@H]3O)[C@H]2O)[C@](C)(OC)C[C@@H](C)/C(=N/OCc2cc(OC)c(OC)c(OC)c2)[C@H](C)[C@@H](O)[C@]1(C)O | 10.3 | 20 | 20.1
CC[C@H]1OC(=O)[C@H](C)[C@@H](O[C@H]2C[C@@](C)(OC)[C@@H](O)[C@H](C)O2)[C@H](C)[C@@H](O[C@@H]2O[C@H](C)C[C@H](N(C)CCN(C)[C@H]3C[C@@H](C)O[C@@H](O[C@@H]4[C@@H](C)[C@H](O[C@H]5C[C@@](C)(OC)[C@@H](O)[C@H](C)O5)[C@@H](C)C(=O)O[C@H](CC)[C@@](C)(O)[C@H](O)[C@@H](C)C(=O)[C@H](C)C[C@@]4(C)OC)[C@@H]3O)[C@H]2O)[C@](C)(OC)C[C@@H](C)C(=O)[C@H](C)[C@@H](O)[C@]1(C)O | 8.1 | 20 | 17.7
CC[C@H]1OC(=O)[C@H](C)[C@@H](O[C@H]2C[C@@](C)(OC)[C@@H](O)[C@H](C)O2)[C@H](C)[C@@H](O[C@@H]2O[C@H](C)C[C@H](N(C)CC(=O)N(C)[C@H]3C[C@@H](C)O[C@@H](O[C@@H]4[C@@H](C)[C@H](O[C@H]5C[C@@](C)(OC)[C@@H](O)[C@H](C)O5)[C@@H](C)C(=O)O[C@H](CC)[C@@](C)(O)[C@H](O)[C@@H](C)/C(=N/OCOCCOC)[C@H](C)C[C@@]4(C)O)[C@@H]3O)[C@H]2O)[C@](C)(O)C[C@@H](C)/C(=N/OCOCCOC)[C@H](C)[C@@H](O)[C@]1(C)O | 33.4 | 13.3 | 28.7
C=CCO/N=C1/[C@H](C)C[C@@](C)(O)[C@H](O[C@@H]2O[C@H](C)C[C@H](N(C)CCN(C)[C@H]3C[C@@H](C)O[C@@H](O[C@@H]4[C@@H](C)[C@H](O[C@H]5C[C@@](C)(OC)[C@@H](O)[C@H](C)O5)[C@@H](C)C(=O)O[C@H](CC)[C@@](C)(O)[C@H](O)[C@@H](C)/C(=N\OCC=C)[C@H](C)C[C@@]4(C)O)[C@@H]3O)[C@H]2O)[C@@H](C)[C@H](O[C@H]2C[C@@](C)(OC)[C@@H](O)[C@H](C)O2)[C@@H](C)C(=O)O[C@H](CC)[C@@](C)(O)[C@H](O)[C@H]1C | 27.7 | > 100 | 17.5
CC[C@H]1OC(=O)[C@H](C)[C@@H](O[C@H]2C[C@@](C)(OC)[C@@H](O)[C@H](C)O2)[C@H](C)[C@@H](O[C@@H]2O[C@H](C)C[C@H](N(C)CCN(C)[C@H]3C[C@@H](C)O[C@@H](O[C@@H]4[C@@H](C)[C@H](O[C@H]5C[C@@](C)(OC)[C@@H](O)[C@H](C)O5)[C@@H](C)C(=O)O[C@H](CC)[C@@](C)(O)[C@H](O)[C@@H](C)C(=O)[C@H](C)C[C@@]4(C)OC)[C@@H]3O)[C@H]2O)[C@](C)(O)C[C@@H](C)[C@H](N)[C@H](C)[C@@H](O)[C@]1(C)O | 17.8 | 57.8 | 26.4
